In patent US11939311B2, “Acid-labile surfactants” (Promega Corporation, priority 2019, dated 2024):

What was measured:
[1] = Thermal stability, LCMS (% remaining at 95° C. for 1 h); details: 20 mM DMSO stock diluted 100-times into Tris-based PCR buffer
Protocol: To test for thermal stability (% remaining at 95° C. for 1 h), 20 mM stock solutions of example compounds in DMSO were prepared. The stock solutions were diluted 100-times into a Tris-based PCR buffer and heated to 95° C. for 1 hour in a thermocycler. The solutions were then analyzed by LCMS.
(§1) Compound purity and percent remaining were determined by integrating peaks in the total ion chromatogram using LCMS. Compound peaks were identified in negative mode using the molecular weight without sodium. The mobile phase of acetonitrile and water contained 10 mM ammonium acetate using a Synergi Max-RP column, 50×4.6 mm, 2.5 microns.

[2] = Acid stability in 2% TFA, LCMS; details: 3 mM stock diluted 6-times to 2% TFA-NanoPure water
Protocol: To test for acid stability, a 3% stock solution (9 mg/300 μL) of each example compound was prepared in NanoPure water. A secondary 3 mM stock solution was prepared in NanoPure water. The secondary stock was diluted 6-times in NanoPure water as a control or diluted 6-times into 2.4% TFA-NanoPure water to 2% TFA-NanoPure water for the acid stability experiment. The solutions were heated to 40° C. for 1 hour and analyzed by LCMS.
as §1

[3] = molecular target: T1, Trypsin Gold (Promega) (Sus scrofa, UniProt P00761); assay: Trypsin compatibility with the trypsin-specific substrate BAEE; assay type: biochemical; details: 0.1% surfactant, 200 μM BAEE; for Slope: 0.2 μg Trypsin Gold, absorbance at 253 nm every minute over 10 minutes; for % Trypsin Activity: compared to control of trypsin without surfactant
T1 construct: purchased Promega
T1 sequence (P00761 9-231): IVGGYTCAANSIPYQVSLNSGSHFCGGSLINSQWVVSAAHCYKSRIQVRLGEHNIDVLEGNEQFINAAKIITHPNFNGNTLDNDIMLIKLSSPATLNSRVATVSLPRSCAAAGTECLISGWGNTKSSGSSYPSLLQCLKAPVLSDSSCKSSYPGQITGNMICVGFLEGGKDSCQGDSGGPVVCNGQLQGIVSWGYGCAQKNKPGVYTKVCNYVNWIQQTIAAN
Protocol: Compatibility of the different compounds with trypsin was tested using a trypsin-specific substrate, benzoyl-L-arginine ethyl ester hydrochloride (BAEE). 4% stock solutions (12 mg/300 μL) of example compounds were prepared in NanoPure water. The stock solution was diluted 40 times in 50 mM ammonium bicarbonate, pH 7.8 (0.1% final) with 200 μM of BAEE. The entire sample was transferred to an individual well in a 96-well UV-compatible microplate. The absorbance of the sample was measured at 253 nm using a TECAN M1000 plate reader. After 2 minutes, 0.2 μg of Trypsin Gold (Promega) was added to the reaction and absorbance at 253 nm was monitored every minute over a period of 10 minutes. The resulting activity measurement was compared to the control of trypsin without surfactant present. Trypsin is the most commonly used protease for the digestion of protein mass spectrometry samples. The results from this experiment indicate that the compounds have a minimal effect on trypsin activity and can be used during the sample digestion step.

SMILES	% remaining after 1 hour at 95° C. in Polymerase Buffer C [1]	% remaining after 1 h at 40° C. in 2% TFA [2]	Slope [3]	% Trypsin Activity [3] [%]
CCCCCCOC(C)(COC(=O)NCCCS(=O)(=O)[O-])OCCCCCC.[Na+] [RBK-0169]	6.0%			
CCCCCOC(C)(COC(=O)NCCCS(=O)(=O)[O-])OCCCCC.[Na+] [RBK-0168]	5.4%			
CC(COC(=O)NCCCS(=O)(=O)[O-])(OCCC(F)(F)C(F)(F)C(F)(F)C(F)(F)F)OCCC(F)(F)C(F)(F)C(F)(F)C(F)(F)F.[Na+] [ZZ-0842, Sodium 3-(((2,2-bis((3,3,4,4,5,5,6,6,6-nonafluorohexyl)oxy)propoxy)carbonyl)amino)propane-1-sulfonate]	>99%	0%		
CCCCCCCCCCC1OCC(COC(=O)NCC(O)CS(=O)(=O)[O-])O1.[Na+] (stereo not shown) [HW-0801, Sodium 3-((((2-decyl-1,3-dioxolan-4-yl)methoxy)carbonyl)amino)-2-hydroxypropane-1-sulfonic Acid]	94.1%	Not soluble		
CC(COC(=O)NCC(O)CS(=O)(=O)[O-])(OCCC(F)(F)C(F)(F)C(F)(F)C(F)(F)C(F)(F)C(F)(F)F)OCCC(F)(F)C(F)(F)C(F)(F)C(F)(F)C(F)(F)C(F)(F)F.[Na+] (stereo not shown) [ZZ-0846, Sodium 3-(((2,2-bis((3,3,4,4,5,5,6,6,7,7,8,8,8-tridecafluorooctyl)oxy)propoxy)carbonyl)amino)-2-hydroxypropane-1-sulfonate]	93.4%	2%		
CCCCCCC1(CCCCCC)OCC(COC(=O)NCC(O)CS(=O)(=O)[O-])O1.[Na+] (stereo not shown) [JZ-0179, Sodium 3-((((2,2-dihexyl-1,3-dioxolan-4-yl)methoxy)carbonyl)amino)-2-hydroxypropane-1-sulfonate]	83.9%	100%		
CCCCCCCCCCCC1OCC(COC(=O)NCC(O)CS(=O)(=O)[O-])O1.[Na+] (stereo not shown) [HW-0805, Sodium 2-hydroxy-3-((((2-undecyl-1,3-dioxolan-4-yl)methoxy)carbonyl)amino)propane-1-sulfonate]	94.2%	Not soluble		
CCCCCCCCCCC1OCC(COC(=O)NCCCS(=O)(=O)[O-])O1.[Na+] (stereo not shown) [JRW-1564, Sodium 3-((((2-decyl-1,3-dioxolan-4-yl)methoxy)carbonyl)amino)propane-1-sulfonate]	95.2%	1%		
CC(COC(=O)NCC(O)CS(=O)(=O)[O-])(OCCC(F)(F)C(F)(F)C(F)(F)C(F)(F)F)OCCC(F)(F)C(F)(F)C(F)(F)C(F)(F)F.[Na+] (stereo not shown) [ZZ-0850, Sodium 3-(((2,2-bis((3,3,4,4,5,5,6,6,6-nonafluorohexyl)oxy)propoxy)carbonyl)amino)-2-hydroxypropane-1-sulfonate]	90.5%	0%		
CCCCCCCCCCCC1OCC(COC(=O)NCCCS(=O)(=O)[O-])O1.[Na+] (stereo not shown) [JRW-1565, Sodium 3-((((2-undecyl-1,3-dioxolan-4-yl)methoxy)carbonyl)amino)propane-1-sulfonate]	95.7%	1%		
CCCCCOC(C)(COC(=O)Nc1ccc(N(CCCS(=O)(=O)[O-])CCCS(=O)(=O)[O-])cc1)OCCCCC.[Na+].[Na+] [CS-0853, Sodium 3,3′-((4-(((2,2-bis(pentyloxy)propoxy)carbonyl)amino)phenyl)azanediyl) bis(propane-1-sulfonate)]	2.5%	42%		
CCCCCCCC1(CCCCCCC)OCC(COC(=O)NCCCS(=O)(=O)[O-])O1.[Na+] (stereo not shown) [RBK-0170]	88.3%	0%	0.0107	74
CCCCCCCC1(CCCCCCC)OCC(COC(=O)NCC(O)CS(=O)(=O)[O-])O1.[Na+] (stereo not shown) [RBK-0173]	81.2%	Not soluble		
CCCCCCCCCCC1(C)OCC(COC(=O)NCCCS(=O)(=O)[O-])O1.[Na+] (stereo not shown) [AF-0045, Sodium 3-((((2-decyl-2-methyl-1,3-dioxolan-4-yl)methoxy)carbonyl)amino)propane-1-sulfonate]	89.3%	0%		
CC(COC(=O)NCCCS(=O)(=O)[O-])(OCCC(F)(F)C(F)(F)C(F)(F)C(F)(F)C(F)(F)C(F)(F)F)OCCC(F)(F)C(F)(F)C(F)(F)C(F)(F)C(F)(F)C(F)(F)F.[Na+] [ZZ-0849, Sodium 3-(((2,2-bis((3,3,4,4,5,5,6,6,7,7,8,8,8-tridecafluorooctyl)oxy)propoxy)carbonyl)amino)propane-1-sulfonate]	>99%	2%		
CCCCCCCCCCCC1(C)OCC(COC(=O)NCCCS(=O)(=O)[O-])O1.[Na+] (stereo not shown) [JRW-1573, Sodium 3-((((2-methyl-2-undecyl-1,3-dioxolan-4-yl)methoxy)carbonyl)amino)propane-1-sulfonate]	95.0%	0%	0.0133	92

Results, then the molecule that gave them:

% remaining after 1 hour at 95° C. in Polymerase Buffer C [1]	% remaining after 1 h at 40° C. in 2% TFA [2]	Slope [3]	% Trypsin Activity [3] [%]	SMILES
>99%	22%			CCCCCCCCCCCC1OCC(COC(=O)Nc2ccc(N(CCCS(=O)(=O)[O-])CCCS(=O)(=O)[O-])cc2)O1.[Na+].[Na+] (stereo not shown) [CS-0843, Sodium 3,3′-((4-((((2-undecyl-1,3-dioxolan-4-yl)methoxy)carbonyl)amino)phenyl)-azanediyl)bis(propane-1-sulfonate)]
92.8%	4%			CCCCCCCCCCCCC1OCC(COC(=O)NCCCS(=O)(=O)[O-])O1.[Na+] (stereo not shown) [JRW-1574, Sodium 3-((((2-dodecyl-1,3-dioxolan-4-yl)methoxy)carbonyl)amino)propane-1-sulfonate]
Not soluble	Not soluble			CCCCCCCCCCCCC1OCC(COC(=O)NCC(O)CS(=O)(=O)[O-])O1.[Na+] (stereo not shown) [HW-0807, Sodium 3-((((2-dodecyl-1,3-dioxolan-4-yl)methoxy)carbonyl)amino)-2-hydroxypropane-1-sulfonic Acid]
102.9%	0%			CCCCCCC1(CCCCCC)OCC(COC(=O)NCCCS(=O)(=O)[O-])O1.[Na+] (stereo not shown) [TU-1179, Sodium 3-((((2,2-dihexyl-1,3-dioxolan-4-yl)methoxy)carbonyl)amino)propane-1-sulfonate]
93.8%	0%			CCCCCC1(CCCCC)OCC(COC(=O)NCC(O)CS(=O)(=O)[O-])O1.[Na+] (stereo not shown) [JZ-0164, Sodium 3-((((2,2-dipentyl-1,3-dioxolan-4-yl)methoxy)carbonyl)amino)-2-hydroxypropane-1-sulfonate]
99.4%	0%			CCCCCC1(CCCCC)OCC(COC(=O)NCCCS(=O)(=O)[O-])O1.[Na+] (stereo not shown) [JZ-0177, Sodium 3-((((2,2-dipentyl-1,3-dioxolan-4-yl)methoxy)carbonyl)amino)propane-1-sulfonate]
13.1%				CCCCCOC(C)(COC(=O)NCC(O)CS(=O)(=O)[O-])OCCCCC.[Na+] (stereo not shown) [RBK-0171]
93.6%	0%			CCCCCCCCCCCC1(C)OCC(COC(=O)Nc2ccc(N(CCCS(=O)(=O)[O-])CCCS(=O)(=O)[O-])cc2)O1.[Na+].[Na+] (stereo not shown) [SL-1735, Sodium 3,3′-((4-((((2-methyl-2-undecyl-1,3-dioxolan-4-yl)methoxy)carbonyl)amino)phenyl)azanediyl)bis(propane-1-sulfonate)]
83.6%	Not soluble			CCCCCCCCCCCC1(C)OCC(COC(=O)NCC(O)CS(=O)(=O)[O-])O1.[Na+] (stereo not shown) [HW-0797, Sodium 2-hydroxy-3-((((2-methyl-2-undecyl-1,3-dioxolan-4-yl)methoxy)carbonyl)amino)propane-1-sulfonic Acid]
8.2%				CCCCCCOC(C)(COC(=O)NCC(O)CS(=O)(=O)[O-])OCCCCCC.[Na+] (stereo not shown) [RBK-0172]
